Our source for the TGI and GI50 values is PubChem BioAssay (NCI).

Test systems include HT29 colon; HL-60(TB) leukemia; ACHN renal; K-562 leukemia; UO-31 renal; OVCAR-3 ovarian; NCI-H460 lung; SNB-19 CNS; HCC-2998 colon; UACC-257 melanoma.
Assay in all cases: inhibition of tumour cell growth, NCI panel, 48 h

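Results reflect a 48-hour exposure of cells in 96-well plates to compound at five concentrations. GI50 = concentration required for 50% inhibition of growth. At the TGI there is no net growth.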

For `Cc1cc(C)c2c(c1C)CN1CN2Cc2c(C)c(C)cc(C)c21`, the TGI in the assay with HT29 colon was greater than 100 µM; with HL-60(TB) leukemia it was 46.3 µM; with ACHN renal, greater than 100 µM; with K-562 leukemia, greater than 100 µM; in the assay with UO-31 renal, greater than 100 µM; in the assay with OVCAR-3 ovarian it was greater than 100 µM. This molecule also gave a TGI in the assay with NCI-H460 lung greater than 100 µM.

In the case of `CC1(C)CC[C@]2(C(=O)O)CCC3(C)C(=CCC4[C@@]5(C)CC[C@H](OC6OCC(O)C(O)C6OC6OC(CO)C(O)C(O)C6O)C(C)(C)C5CC[C@]43C)C2C1` (stereo not given in full), the TGI with HT29 colon was determined as 5.23 µM; in the assay with ACHN renal, 3.64 µM; in the assay with SNB-19 CNS, 3.7 µM; in the assay on UO-31 renal, 3.71 µM; with OVCAR-3 ovarian, 4.39 µM; with HCC-2998 colon it was 3.16 µM. The TGI with NCI-H460 lung is 4.22 µM; with UACC-257 melanoma it was 9.21 µM.

On to `CC/C(=C(/CC)c1ccc(OP(=O)([O-])[O-])cc1)c1ccc(OP(=O)([O-])[O-])cc1.N.N.N.N.[Pt+4].[Pt+4]`, for which the GI50 in the assay with HT29 colon is 16.9 µM; in the assay on HL-60(TB) leukemia it was 0.518 µM; in the assay on ACHN renal, 2.08 µM; in the assay with K-562 leukemia it was 4.63 µM; in the assay with UO-31 renal, 4.3 µM; with OVCAR-3 ovarian, 2.49 µM. For the same molecule, the GI50 is 11.6 µM with HCC-2998 colon, 0.933 µM in the assay on NCI-H460 lung and 2.99 µM in the assay on UACC-257 melanoma. Further, the TGI is 90.3 µM in the assay on HT29 colon; 16.4 µM in the assay on HL-60(TB) leukemia; 10.9 µM with ACHN renal; greater than 100 µM with K-562 leukemia; 25.4 µM in the assay with UO-31 renal; 8.89 µM in the assay with OVCAR-3 ovarian. Also, the TGI with HCC-2998 colon was determined as 24 µM; in the assay with NCI-H460 lung, 7.62 µM; in the assay with UACC-257 melanoma, 10.1 µM.

`O=[N+]([O-])c1ccc(N=Nc2c(O)[nH]c3ccc(Br)cc23)c([N+](=O)[O-])c1`: the TGI is greater than 100 µM in the assay on HT29 colon; 4.77 µM with HL-60(TB) leukemia; 9.44 µM in the assay with ACHN renal; 15.5 µM in the assay on K-562 leukemia; 17.1 µM in the assay on SNB-19 CNS; 7.14 µM with UO-31 renal. The TGI with OVCAR-3 ovarian came out at 19.3 µM; in the assay with HCC-2998 colon, 23.4 µM; in the assay with UACC-257 melanoma it was 15.6 µM.

`CCN=C(N)CSS(=O)(=O)O`: the TGI with HT29 colon, with HL-60(TB) leukemia, in the assay on ACHN renal, in the assay with K-562 leukemia, with SNB-19 CNS and in the assay with OVCAR-3 ovarian was greater than 100 µM throughout. Besides, the TGI with NCI-H460 lung and in the assay with UACC-257 melanoma was greater than 100 µM throughout.

For `COc1ccc(C(=O)Nc2ccccc2C#N)cc1`, the TGI in the assay with HT29 colon, with HL-60(TB) leukemia, with ACHN renal, in the assay on K-562 leukemia, in the assay with SNB-19 CNS and with OVCAR-3 ovarian was greater than 100 µM in each case. In addition, the TGI with NCI-H460 lung and with UACC-257 melanoma was greater than 100 µM each time.

In the case of `COc1ccc(C(=O)Nc2ccccc2)cc1[N+](=O)[O-]`, the TGI with HT29 colon, with K-562 leukemia, with SNB-19 CNS, with UO-31 renal, in the assay on OVCAR-3 ovarian and with NCI-H460 lung was greater than 100 µM in each case. In the assay with UACC-257 melanoma, this molecule gave a TGI greater than 100 µM.

In the case of `CCOC(=O)C1=C(O)CSC1=Nc1ccc(N=C2SCC(O)=C2C(=O)OCC)cc1`, the TGI in the assay on HT29 colon is 60.2 µM; with HL-60(TB) leukemia, greater than 100 µM; in the assay on ACHN renal, 67.4 µM; in the assay with K-562 leukemia, greater than 100 µM; in the assay with SNB-19 CNS it was greater than 100 µM; with UO-31 renal it was 37.7 µM. In addition, the TGI in the assay on OVCAR-3 ovarian is greater than 100 µM; in the assay on NCI-H460 lung, 92 µM; in the assay on UACC-257 melanoma, 75.5 µM.

Take `O=S(=O)(Nc1ccc2ccc3cccc4ccc1c2c34)c1ccccc1`: the TGI with HT29 colon, in the assay on HL-60(TB) leukemia, in the assay with ACHN renal, in the assay with K-562 leukemia, in the assay with SNB-19 CNS and in the assay on UO-31 renal was greater than 100 µM throughout. In addition, the results for the TGI in the assay on OVCAR-3 ovarian, with NCI-H460 lung and in the assay on UACC-257 melanoma were 48.9 µM, greater than 100 µM and greater than 100 µM, respectively.

`CNS(=O)(=O)NN(C)S(=O)(=O)c1ccc(C)cc1`: the TGI with HT29 colon, with HL-60(TB) leukemia, with ACHN renal, in the assay on SNB-19 CNS, with UO-31 renal and with OVCAR-3 ovarian was greater than 100 µM throughout. Moreover, the TGI with HCC-2998 colon, in the assay on NCI-H460 lung and with UACC-257 melanoma was greater than 100 µM each time.

Turning to `c1ccc2c(c1)SCCCSCCCS2`, the TGI is 74.5 µM in the assay on HL-60(TB) leukemia; greater than 100 µM with K-562 leukemia; greater than 100 µM with SNB-19 CNS; greater than 100 µM in the assay with OVCAR-3 ovarian; greater than 100 µM in the assay with HCC-2998 colon; greater than 100 µM with NCI-H460 lung. For the same molecule, the TGI in the assay on UACC-257 melanoma was greater than 100 µM.

For `O=c1[nH]cnc2c1nnn2C1C=C(CO)C(O)C1O` (stereo not given), the TGI in the assay on HT29 colon, in the assay on ACHN renal, with K-562 leukemia, in the assay on SNB-19 CNS, with UO-31 renal and in the assay with OVCAR-3 ovarian was greater than 100 µM each time. Also, the TGI in the assay on HCC-2998 colon, in the assay on NCI-H460 lung and in the assay on UACC-257 melanoma was greater than 100 µM in each case.

Consider `C#CCSc1nnnn1-c1ccc(Br)c(C)c1`, for which the GI50 in the assay on HT29 colon is 30.3 µM; with HL-60(TB) leukemia, 27.3 µM; in the assay with ACHN renal, 33.1 µM; with K-562 leukemia, 27.6 µM; in the assay with SNB-19 CNS, 74 µM; in the assay with OVCAR-3 ovarian, 23.2 µM. In addition, the figures for the GI50 with HCC-2998 colon, with NCI-H460 lung and in the assay on UACC-257 melanoma were 33.8 µM, 31.5 µM and 35.2 µM, respectively. In addition, the TGI with HT29 colon is 96 µM; with HL-60(TB) leukemia it was 87 µM; with ACHN renal it was greater than 100 µM; in the assay with K-562 leukemia, greater than 100 µM; with SNB-19 CNS, greater than 100 µM; in the assay on OVCAR-3 ovarian, 95.8 µM. Further, the TGI with HCC-2998 colon, in the assay with NCI-H460 lung and in the assay with UACC-257 melanoma was greater than 100 µM throughout.

Take `COc1cc(C2c3cc4c(cc3[C@@H](OCCN)[C@H]3COC(=O)C23)OCO4)cc(OC)c1O` (stereo not given in full): the TGI was 2.69 µM with HT29 colon; 0.0633 µM in the assay on HL-60(TB) leukemia; 2.01 µM in the assay with ACHN renal; 1.93 µM in the assay on SNB-19 CNS; 13.6 µM in the assay with UO-31 renal; 3.06 µM in the assay with OVCAR-3 ovarian. The TGI in the assay on HCC-2998 colon is 2.1 µM; in the assay on NCI-H460 lung, greater than 100 µM; in the assay with UACC-257 melanoma it was 18.2 µM.
